Data published in publication PMC11134608, “UBR5 forms ligand-dependent complexes on chromatin to regulate nuclear hormone receptor stability” (Molecular cell, 2023).

Assays:
ER and UBR5 = assay: Co-immunoprecipitation of ER-GFP and UBR5 in K562; format: cell-based, human; settings: K562 ER-GFP, with MG132, 16 h
Source text: Blotting was done as described above.
Fulvestrant GDC-0927 Elacestrant Giredestrant Camizestrant Amcenestrant […]
log2 Ratio log2 Ratio log2 Ratio log2 Ratio log2 Ratio log2 Ratio […]
Amcenestrant Camizestrant GiredestrantBrilanestrant Fulvestrant ElacestrantAmcenestrant Camizestrant Giredestrant Brilanestrant […]
50 FulvestrantBrilanestrant
Figure S8. Non-endogenousligands recruitdifferent E3 ligases to induce ER degradation,Related to Figure 6 […]
VHL are highlighted in red. (C) Degradation (GFP/mCherry) of ER-GFP in K562 reporter cell lines treated with shRNAs targeting UBR5 and the specified SERDs or ER PROTACs. (D) Degradation (GFP/mCherry) of ER-GFP in K562 reporter cell lines treated with sgRNAs targeting RNF111 and the specified SERDs or ER PROTACs. (E) Western blots of T47D cells […]
treated with or without Brilanestrant. (G) Bioluminescence Resonance Energy Transfer (BRET) assay of ER, treated +/- fulvestrant or brilanestrant. (n=6 two sided t-test) (H) Western blots of ER co-immunoprecipitations from K562 ER-GFP reporter cells treated with brilanestrant and MG132 for 16 hours, and blotted with antibodies specific for GFP, and UBR5 as indicated. NS, not […]

ER [1] = assay: ER degradation after RNF111 or UBR5 knockdown (reporter K562; T47D western); format: cell-based, human; settings: K562 ER-GFP, shUBR5 / sgRNF111, Figure S8C, D
Method: Cells were analyzed for GFP vs mCherry expression.
Protein concentration was quantified via Pierce BCA Protein Assay Kit (ThermoFisher, 23225), and equal amounts of lysates were run on either SDS-PAGE 3–8% Tris-Acetate or 4–12% Bis-Tris Protein Gels (NuPAGE, ThermoFisher), then transferred to a PVDF membrane (Biorad, Wet Transfer System). Membranes were blocked for 30 minutes to 1 hour at room temperature in Odyssey Blocking Buffer/PBS (LI-COR Biosciences), and incubated with primary antibodies at 4 °C overnight. Stained membranes were washed three times in Tris-buffered saline with Tween 20 (TBS-T) and incubated for 1 hour at room temperature with secondary IRDye-conjugated antibodies (LI-COR Biosciences). Membranes were washed three times in TBS-T before imaging (Odyssey Imaging System, LI-COR Biosciences).

ER reporter = ER reporter degradation; format: cell-based, human; settings: 1 μM (legend, SERDs)
Method: Reporter cell lines were seeded in triplicate at a density of 1 million cells/ml in 100 μl per well in a 96 well plate and measured once. Ligand was added by Digital Dispenser (Tecan), and incubated at 37°C for the appropriate time before reading by flow cytometry. Cells were analyzed for GFP vs mCherry expression. GFP expression was normalized to mCherry signal and ligand treatments were compared to DMSO controls.

[2] = tested on: ER reporter (E3 ligase dependence); assay: Targeted CRISPR screens, ER reporter K562 cells: E3 ligase used; format: cell-based, human; settings: for E3 ligase used for ER degradation: K562 ER reporter, CRISPR screen; for E3 Ligase (Table S2): Supplemental Table S2
Method: To characterize the UPS pathway components involved in SERD-induced ER degradation, we performed CRISPR screens with our ER reporter in the presence multiple SERDs: fulvestrant, GDC-0927, elacestrant, giredestrant, camizestrant, amcenestrant, AZD-9496, brilanestrant, and LSZ-102. […] Taken together, these findings indicate that different classes of SERDs engage distinct ubiquitin ligases and degradation pathways to target ER.
The UPS and tiling CRISPR functional genomics screen was performed following previously described methods.[22] Briefly, the UPS CRISPR library targets 713 E1, E2, E3 ubiquitin ligases, and deubiquitinases and includes controls genes with a total of 2852 guide RNAs, cloned into the pXPR003 backbone. The UBR5 Tiling screen was created by CRISPR-SURF.[29] Viruses were produced in a T-175 format and ten percent by volume of the library virus was added to reporter cell lines in triplicates for transduction. Transduced cells were allowed to recover and expand for nine days, then treated with indicated ligand. Top and bottom 5% of cells by GFP signal were sorted for a total of at least 100,000 cells per replicate. Samples were processed as previously described.[22]
Reporter cell lines were treated with ATRA or 9-cis RA, and then sorted into four populations by eGFP/mCherry fluorescence ratios (Gates A-D), corresponding to the bottom and top 5–10% respectively (Figure S1D).[22],[23] Sorted cells were pelleted, lysed, and processed according to previous studies.[22] Briefly sgRNAs were amplified in two PCRs via Titanium Taq (Takara Bio 639210), Titanium Taq Buffer and 800uM dNTP mix and eight staggered forward primers. The first PCR also contained 200 nM SBS3-Stagger-pXPR003 forward primer and 200 nM SBS12-pXPR003 reverse primer (cycles: 5 minutes at 94°C, 15 × (30 sec at 94°C, 15 sec at 58°C, 30 sec at 72°C), 2 minutes at 72°C). Illumina adapters and barcodes were added in the second PCR (200 nM P5-SBS3 forward primer, 200 nM P7-barcode-SBS12 reverse primer). Samples were pooled and purified by agarose gel-electrophoresis (Qiagen) and NaOAc/isopropanol precipitation. Amplified guides were quantified by next-generation sequencing (Genomics Platform, Broad Institute), and analyzed for enrichment in Gate A over Gate D, representing degradation rescue.

ER [3] = settings: cited from earlier work
Source text: SERDs are a class of molecules targeting the ER for the treatment of breast cancer. […] Given that UBR5 is similarly recruited to the NR hydrophobic cleft, we hypothesized that fulvestrant and other SERDs may employ a different mechanism for ER degradation. […] One of the best understood SERDs, fulvestrant, drastically remodels the hydrophobic cleft[16],[17] in a manner incompatible with UBR5 or NCOA binding. […] Strikingly, this correlates with clinical utility, hallmarked by the wide use of fulvestrant and recent approval of elacestrant,[53] both of which employ RNF111, in contrast to UBR5 SERDs (Table S2), none of which have been approved for clinical use. The heterogeneity of ER transcriptional pro ...

ER and RNF111 [4] = assay: BRET assay of RNF111 and ER; format: cell-based, human
Source text: Bioluminescence resonance energy transfer (BRET) experiments were done using the NanoBRET PPI kit (Promega, N1821) according to manufacturer’s instructions.

ER and RNF111 [5] = assay: Co-immunoprecipitation of FLAG-RNF111 and ER-GFP in 293T; settings: ± MG132
Method: (B) ER reporter degradation following 1 μM of specified SERD treatment. […] UBR5 is highlighted in blue, RNF111, CRBN, VHL are highlighted in red. (D) Western blots of T47D cells transduced with sgRNAs against RNF111 treated with or without fulvestrant. […] (NS, not significant, *p < 0.05, **p < 0.005, ***p < 0.0005, ****p < 0.00005, error bars represent SEM.)
Reporter cells (up to 100 million) were treated with ligand (ATRA, dexamethasone) and allowed to incubate for different time points. […] Lysates were incubated with GFP-Trap Magnetic Agarose beads (ChromoTek, GTMA-20) overnight at 4°C on a rotator. Beads were magnetically removed and washed three times with Pierce IP Lysis Buffer with ligand added before boiling in 1x NuPAGE LDS Sample Buffer (ThermoFischer, NP0007). […] Experiments were repeated and representative images are shown.

| Compound | ER and UBR5 interaction by co-immunoprecipitation (ER and UBR5) | regulated class of ER degradation (RNF111 or UBR5) (ER [1]) | ER reporter degradation (ER reporter) | E3 ligase used for ER degradation [2] | E3 Ligase (Table S2) [2] | ER degradation (literature) (ER [3]; ref [17], [53]) | ER transcriptional profile following SERD treatment (ER [3]; ref [17],[55]) | effect on helix 12 and ER hydrophobic cleft (ER [3]; ref [54]) | ER-RNF111 BRET, significance (mBU) (ER and RNF111 [4]; Figure S8G, n = 6 two sided t-test) | association of RNF111 with ER by BRET (ER and RNF111 [4]; n = 6) | association of RNF111 with ER by co-immunoprecipitation (ER and RNF111 [5]) |
| --- | --- | --- | --- | --- | --- | --- | --- | --- | --- | --- | --- |
| CC/C(=C(/c1ccc(/C=C/C(=O)O)cc1)c1ccc2[nH]ncc2c1)c1ccc(F)cc1Cl [brilanestrant] | increased ER and UBR5 interactions | UBR5 Regulated | induced ER reporter degradation | required UBR5 for degradation | UBR5 |  |  |  |  |  |  |
| C[C@]12CC[C@@H]3c4ccc(O)cc4C[C@@H](CCCCCCCCC[S+]([O-])CCCC(F)(F)C(F)(F)F)[C@H]3[C@@H]1CC[C@@H]2O (stereo partly drawn) [fulvestrant] |  | RNF111 Regulated | induced ER reporter degradation | employed a different E3 ligase, RNF111 | RNF111 | lead to ER degradation | most antagonistic of tested SERDs | destabilize helix 12 and block the ER hydrophobic cleft, preventing coactivation | * (*p < 0.05) | induces association of RNF111 with ER | induces association of RNF111 with ER |
